Among the data in US20240391923A1, “METHIONINE ADENOSYLTRANSFERASE 2A INHIBITOR FOR TREATING MTAP DELETION-TYPE CANCER” (SUZHOU GENHOUSE BIO CO., LTD., priority 2022, published 2024) are IC50 values, retold here.

Like-named read-outs stand apart in the source and are kept apart here.

In experiment [1] the test system is HCT116-MTAP-knockout (−/−) cell strain. In words: Tumor cell proliferation inhibition assay (CellTiter-Glo), HCT116-MTAP-knockout (-/-). Type of experiment: cell-based. The conditions noted are these: Homo sapiens, 120 h, 5-day treatment. The protocol: (§1) After the HCT116-MTAP-knockout (−/−) cell strain, the HCT116-MTAP wild-type(+/+)-cell strain, the DOHH-2 cell strain, or the Hut-78 cell strain was treated with the test compound for 5 days, the ATP level was measured using a CellTiter-Glo kit of Promega to evaluate the inhibition of the test compound against the growth of the tumor cell strain.
(§2) In the present application, the HCT116-MTAP-knockout (−/−) cell strain, the HCT116-MTAP wild-type (+/+)-cell strain, the DOHH-2 cell strain, or the Hut-78 cell strain was seeded into a 96-well cell culture plate at an appropriate cell density. After 24 h, the cells were treated using the test compounds diluted 1:3 fold at the highest concentration of 10 μM for 10 gradients, and a DMSO treatment group was set up separately. The cells were cultured in a 37° C./5% CO2 incubator for 5 days.
(Cellular ATP, detected with luciferase, serves as a proxy for viable cell number.)

Experiment [2] addresses MAT2A recombinant protein (Homo sapiens, UniProt P31153). In words: MAT2A inhibitory activity (malachite green colorimetric enzyme assay). Type of experiment: biochemical. An excerpt: MAT2A catalyzes the reaction of L-methionine and ATP to generate S-adenosylmethionine (SAM), inorganic phosphonic acid, and inorganic diphosphonic acid. Malachite green reacts with inorganic phosphonic acid to generate a green product, and the enzyme activity of MAT2A can be indirectly reflected by detecting the content of the inorganic phosphonic acid in a sample.
The test compounds were formulated using DMSO and diluted 1:3 diluted through 10 concentration points to give a final starting concentration in the reaction system of 1000 nM. The test compounds at different concentrations described above were transferred to a 384-well plate. Experimental buffer (50 mM HEPES pH 7.5, 50 mM KCl, 10 mM MgCl2, 10 mM DTT) was prepared. 2×MAT2A recombinant protein was prepared using the buffer and added to a 384-well plate. A mixed solution of 2×L-methionine and ATP was prepared using the buffer, and added to a 384-well plate. The enzymatic reaction was started, and the reaction was carried out at room temperature for 60 min. 20 μL of a colorimetric detection reagent was added to the above system, and incubated at room temperature for 15 min. The absorbance at 630 nm was measured. The inhibition rate of the compound on the enzyme activity was calculated, and the inhibition rate value and the logarithm value of the compound concentration were fitted using non-linear regression (dose response-variable slope) to give the IC50 value of the test compound.

For experiment [3], the system named is HCT116-MTAP wild-type (+/+)-cell strain. In words: Tumor cell proliferation inhibition assay (CellTiter-Glo), HCT116-MTAP wild-type (+/+). Type of experiment: cell-based. Conditions: Homo sapiens, 120 h, 5-day treatment. As for the experimental part: as §1, §2
Experiment [4] relates to SDMA in HCT116-MTAP-knockout cell line. In words: Cell symmetric dimethylarginine (SDMA) test, In-cell Western, HCT116-MTAP-knockout. Type of experiment: cell-based. Conditions: Homo sapiens, 96 h.
The mark [5] stands for this setting: HCT116-MTAP-knockout (−/−) cells, IC50 score, read-out: Tumor cell 5-day relative growth inhibition (HCT116-MTAP−/−) (nM), score.
Where [6] appears, read: HCT116-MTAP-knockout (−/−) cells, IC50 value, read-out: Tumor cell 5-day relative growth inhibition (HCT116-MTAP−/−).
Setting [7] is: IC50 score class, read-out: MAT2A Inhibition (score).
Setting [8] is: HCT116-MTAP+/+ cells, IC50 class score, read-out: Tumor cell 5-day relative growth inhibition (HCT116-MTAP+/+) (nM), score.
Setting [9] is: HCT116-MTAP+/+ cells, read-out: Tumor cell 5-day relative growth inhibition (HCT116-MTAP+/+).
The mark [10] stands for this setting: HCT116-MTAP−/− cells, IC50 class score, read-out: Tumor cell 5-day relative growth inhibition (HCT116-MTAP−/−) (nM), score.
The mark [11] stands for this setting: HCT116-MTAP−/− cells, read-out: Tumor cell 5-day relative growth inhibition (HCT116-MTAP−/−).
Where [12] appears, read: IC50 score class, read-out: Cell 96 h SDMA Inhibition (HCT116-MTAP−/−) (score).
Where [13] appears, read: read-out: Cell 96 h SDMA Inhibition (HCT116-MTAP−/−).
[14] abbreviates: HCT116-MTAP wild-type (+/+) cells, IC50 score, read-out: Tumor cell 5-day relative growth inhibition (HCT116-MTAP+/+) (nM), score.
[15] abbreviates: HCT116-MTAP wild-type (+/+) cells, IC50 value, read-out: Tumor cell 5-day relative growth inhibition (HCT116-MTAP+/+).

Chain of MAT2A recombinant protein (P31153 whole entry): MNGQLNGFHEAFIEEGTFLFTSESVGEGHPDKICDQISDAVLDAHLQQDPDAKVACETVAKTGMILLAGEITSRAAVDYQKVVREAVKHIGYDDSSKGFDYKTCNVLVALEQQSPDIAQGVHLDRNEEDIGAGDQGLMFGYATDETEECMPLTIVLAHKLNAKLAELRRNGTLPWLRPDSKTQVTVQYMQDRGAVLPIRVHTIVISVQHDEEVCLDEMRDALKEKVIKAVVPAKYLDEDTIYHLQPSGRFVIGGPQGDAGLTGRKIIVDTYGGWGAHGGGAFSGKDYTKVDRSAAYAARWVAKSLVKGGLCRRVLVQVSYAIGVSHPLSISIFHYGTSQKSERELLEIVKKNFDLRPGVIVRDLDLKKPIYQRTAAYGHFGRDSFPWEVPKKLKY

In the case of `CCn1cc2c(n1)c(=O)n(-c1ccccc1)c1cc(Cl)ccc21` [Compound B2], the IC50 is at least 2000 nM in experiment [1] (setting [5]), 2830 nM in experiment [1] (setting [6]), 100 to 1000 nM in experiment [2] (setting [7]) and 105 nM in experiment [2] (read-out: MAT2A Inhibition).
As to `Cn1cnc2c(=O)n(-c3ccc4ncccc4n3)c3nc(C(F)(F)F)ccc3c21` [Compound B405], the IC50 was at least 2000 nM in experiment [3] (setting [8]); over 10000 nM in experiment [3] (setting [9]); at least 2000 nM in experiment [1] (setting [10]); over 10000 nM in experiment [1] (setting [11]); over 1000 nM in experiment [2] (setting [7]); over 10000 nM in experiment [2] (read-out: MAT2A Inhibition).
Regarding `O=c1c2nn(C(F)F)cc2c2cc(F)c(Cl)cc2n1-c1cccc2[nH]ncc12` [Compound B260], the IC50 in experiment [4] (setting [12]) was under 200 nM; in experiment [4] (setting [13]) it was 57.5 nM; in experiment [1] (setting [5]), under 500 nM; in experiment [1] (setting [6]) it was 69.7 nM; in experiment [2] (setting [7]), under 100 nM; in experiment [2] (read-out: MAT2A Inhibition), 17 nM.
In the case of `Cn1cnc2c(=O)n(-c3cccc4ccncc34)c3nc(C(F)(F)F)ccc3c21` [Compound B407], the IC50 in experiment [3] (setting [8]) was at least 2000 nM; in experiment [3] (setting [9]), over 10000 nM; in experiment [1] (setting [10]), at least 2000 nM; in experiment [1] (setting [11]), over 10000 nM.
On to `Cc1c2c(nn1C(F)F)c(=O)n(-c1cccnc1)c1nc(C(F)(F)F)ccc21` [Compound B252], for which the IC50 is 200 to 1000 nM in experiment [4] (setting [12]); 202 nM in experiment [4] (setting [13]); 500 to 2000 nM in experiment [3] (setting [14]); 1230 nM in experiment [3] (setting [15]); under 500 nM in experiment [1] (setting [5]); 378 nM in experiment [1] (setting [6]). For the same molecule, the results for the IC50 in experiment [2] (setting [7]) and in experiment [2] (read-out: MAT2A Inhibition) were under 100 nM and 19.3 nM, respectively.
For the molecule `Cn1ncc2c3ccc(C(F)(F)F)nc3n(-c3ccccc3Cl)c(=O)c21` [Compound B410], the IC50 in experiment [3] (setting [8]) is at least 2000 nM; in experiment [3] (setting [9]), over 10000 nM; in experiment [1] (setting [10]) it was at least 2000 nM; in experiment [1] (setting [11]) it was over 10000 nM; in experiment [2] (setting [7]), over 1000 nM; in experiment [2] (read-out: MAT2A Inhibition), over 10000 nM.
Consider `CCOc1ccc2c3cn(C)nc3c(=O)n(-c3ccc(OC(F)F)cc3)c2n1` [Compound B400], for which the IC50 is at least 2000 nM in experiment [3] (setting [8]), over 10000 nM in experiment [3] (setting [9]), at least 2000 nM in experiment [1] (setting [10]) and over 10000 nM in experiment [1] (setting [11]).
On to `Cn1cnc2c(=O)n(-c3cccc4[nH]ncc34)c3cc(Cl)c(C#N)cc3c21` [Compound B375], for which the IC50 is at least 2000 nM in experiment [3] (setting [14]), over 10000 nM in experiment [3] (setting [15]), at least 2000 nM in experiment [1] (setting [5]) and over 10000 nM in experiment [1] (setting [6]).
For `Cn1cc2c(n1)c(=O)n(-c1cccc3[nH]ncc13)c1cc(Cl)cnc21` [Compound B273], the IC50 in experiment [4] (setting [12]) was 200 to 1000 nM; in experiment [4] (setting [13]) it was 517 nM; in experiment [3] (setting [14]) it was at least 2000 nM; in experiment [3] (setting [15]) it was 7600 nM; in experiment [1] (setting [5]), 500 to 2000 nM; in experiment [1] (setting [6]), 1400 nM. The IC50 in experiment [2] (setting [7]) was under 100 nM; in experiment [2] (read-out: MAT2A Inhibition), 83 nM.
`Cn1cc2c(n1)c(=O)n(-c1cccnc1C1CC1)c1cc(Cl)c(C#N)cc21` [Compound B348]: the IC50 in experiment [3] (setting [14]) is at least 2000 nM; in experiment [3] (setting [15]) it was at least 10000 nM; in experiment [1] (setting [5]), at least 2000 nM; in experiment [1] (setting [6]), over 10000 nM.
As to `Cn1cnc2c(=O)n(-c3cncc4ccccc34)c3nc(C(F)(F)F)ccc3c21` [Compound B406], the IC50 was at least 2000 nM in experiment [3] (setting [8]), over 10000 nM in experiment [3] (setting [9]), at least 2000 nM in experiment [1] (setting [10]) and over 10000 nM in experiment [1] (setting [11]).
For `Cn1cc2c(n1)c(=O)n(-c1cccnc1C(F)(F)F)c1cc(Cl)c(F)cc21` [Compound B342], the IC50 was at least 2000 nM in experiment [3] (setting [14]), over 10000 nM in experiment [3] (setting [15]), under 500 nM in experiment [1] (setting [5]) and 355 nM in experiment [1] (setting [6]).
As for `Cn1cnc2c(=O)n(-c3ccc4ccccc4c3)c3nc(C(F)(F)F)ccc3c21` [Compound B404], the IC50 in experiment [3] (setting [8]) was at least 2000 nM; in experiment [3] (setting [9]), over 10000 nM; in experiment [1] (setting [10]), at least 2000 nM; in experiment [1] (setting [11]) it was over 10000 nM; in experiment [2] (setting [7]) it was over 1000 nM; in experiment [2] (read-out: MAT2A Inhibition) it was over 10000 nM.
Regarding `Cn1cnc2c(=O)n(-c3ccc4ccccc4n3)c3nc(C(F)(F)F)ccc3c21` [Compound B402], the IC50 in experiment [3] (setting [8]) was at least 2000 nM; in experiment [3] (setting [9]), over 10000 nM; in experiment [1] (setting [10]), at least 2000 nM; in experiment [1] (setting [11]), over 10000 nM; in experiment [2] (setting [7]) it was over 1000 nM; in experiment [2] (read-out: MAT2A Inhibition), over 10000 nM.
As for `Cn1cnc2c(=O)n(-c3ccc4ncccc4c3)c3nc(C(F)(F)F)ccc3c21` [Compound B401], the IC50 in experiment [3] (setting [8]) is at least 2000 nM; in experiment [3] (setting [9]), over 10000 nM; in experiment [1] (setting [10]), at least 2000 nM; in experiment [1] (setting [11]), over 10000 nM.
For the molecule `Cn1cnc2c(=O)n(-c3cnc4ccccc4c3)c3nc(C(F)(F)F)ccc3c21` [Compound B403], the IC50 in experiment [3] (setting [8]) was at least 2000 nM; in experiment [3] (setting [9]), over 10000 nM; in experiment [1] (setting [10]), at least 2000 nM; in experiment [1] (setting [11]) it was over 10000 nM; in experiment [2] (setting [7]), over 1000 nM; in experiment [2] (read-out: MAT2A Inhibition) it was over 10000 nM.
`O=c1c2n[nH]cc2c2ccc(C(F)(F)F)nc2n1-c1ccccc1Cl` [Compound B409]: the IC50 in experiment [3] (setting [8]) was at least 2000 nM; in experiment [3] (setting [9]) it was 4040 nM; in experiment [1] (setting [10]) it was 500 to 2000 nM; in experiment [1] (setting [11]), 1530 nM.
Regarding `Cc1n[nH]c2cccc(-n3c(=O)c4nn(C)cc4c4ccc(Cl)cc43)c12` [Compound B277], the IC50 was under 200 nM in experiment [4] (setting [12]); 61 nM in experiment [4] (setting [13]); 500 to 2000 nM in experiment [3] (setting [14]); 875 nM in experiment [3] (setting [15]); under 500 nM in experiment [1] (setting [5]); 327 nM in experiment [1] (setting [6]). In addition, the IC50 is under 100 nM in experiment [2] (setting [7]) and 83 nM in experiment [2] (read-out: MAT2A Inhibition).
Regarding `Cn1cnc2c(=O)n(-c3cccc4ncccc34)c3nc(C(F)(F)F)ccc3c21` [Compound B408], the IC50 in experiment [3] (setting [8]) was at least 2000 nM; in experiment [3] (setting [9]), over 10000 nM; in experiment [1] (setting [10]) it was at least 2000 nM; in experiment [1] (setting [11]), over 10000 nM.
